Here are results for 1 compound from patent US20040039047A1 (priority 1998, published 2004).

The test system of data set [1] is human epidennoid cells, virally infected with HSV-2. Particulars: cited from earlier work.
Data set [2] has the same test system. Particulars: cited from earlier work. This is another data set of the same source.
Data set [3] has the same test system.

In the case of `CC(=O)OC[C@]12CCC(C)=C[C@H]1O[C@@H]1[C@H](O)[C@@H](OC(C)=O)[C@@]2(C)[C@]12CO2` [DAS], the cell viability entry in data set [1] was “Neither reduced cell viability”. For the same compound, in data set [2], the “Trichothecene in vitro concentration, Inhibitory 80%” value is 4.0 ng/mL and the “Trichothecene in vitro concentration, Inhibitory 100%” value is 5.0 ng/mL. In addition, in data set [3], the “Trichothecene in vitro concentration, Cytotoxic Hi” value was 200 ng/mL and the “Trichothecene in vitro concentration, Cytotoxic Lo” value was 6 ng/mL.
